Measurements published in patent US8329940B2, “18β-glycyrrhetinic acid derivatives and synthetic method thereof” (Kaohsiung Medical University, priority 2009, dated 2012).
Where two headings read alike, the source gives them in different places.

Experiments:
[1] = tested on: TNF-a formation from RAW 264.7 cells stimulated with LPS; settings: for % of inhibition of TNF-a formation (in parentheses): at the highest concentration, RAW 264.7, LPS
Description: Nitric oxide (NO) in the cell medium is determined by the Griess reaction. In Western blot analysis, cells are washed with PBS twice and harvested in Laemmli sodium dodecyl sulfate (SDS) sample buffer to lyse the cells. Cell lysates are separated by 10% SDS-PAGE, and electrophoretically transferred to the poly(vinylidene difluoride) membranes. Membranes are blocked for 1 h at room temperature in TBST buffer (10 mM Tris-HCl, pH 8.0, 150 mM NaCl and 0.1% Tween 20) containing 5% nonfat milk. Membranes are washed with TBST buffer and then incubated with a monoclonal anti-iNOS antibody (1:1000 dilution) for 1 h. Following washed with TBST buffer, horseradish peroxidase-labeled anti-mouse IgG (1:10,000 dilution) is added therein at room temperature for 1 h. The blots are developed using ECL Western blotting reagents. Secretory levels of TNF-a in culture supernatants are determined by the EIA kit according to the procedure of manufacturer.

[2] = tested on: accumulation of NO2− in RAW 264.7 cells stimulated with LPS; test: Nitrite (NO2−) accumulation in RAW 264.7 cells stimulated with LPS (Griess reaction); type: cell-based, Murine; settings: for IC50: RAW 264.7 cells stimulated with LPS, 24 h, read-out: IC50 (B) accumulation of NO2− in RAW 264.7; for % of inhibition of NO2− accumulation (in parentheses): at the highest concentration, RAW 264.7, LPS
Description: (§1) Nitrite is a stable metabolite of NO in the media based on Griess reaction. […] To determine whether the inhibition of NO production in RAW 264.7 cells is attributed to the decrease of iNOS protein expression, Western blotting analysis is performed. Unstimulated cells expressed very low level of iNOS protein, whereas LPS 50 ng/mL induced a large amount of iNOS protein expression. […] Thus, the blockade of iNOS transcription has a critical role as evidenced from the parallelism of the inhibition of NO production and iNOS protein expression by compound 14.

[3] = tested on: superoxide anion formation from rat neutrophils stimulated with fMLP/CB; test: Superoxide anion formation in rat neutrophils stimulated by fMLP/CB; type: cell-based; settings: for % of inhibition of superoxide anion formation, fMLP/CB (in parentheses): at the highest concentration, rat neutrophils; for IC50: rat neutrophils stimulated with fMLP (0.3 μM)/CB (5 μg/mL), 30 min
Description: Compound stock solution (30 mM in DMSO) is prepared and stored at −25° C. before experiment. In the superoxide anion generation experiments, neutrophils isolated from the peripheral blood of the rats are stimulated with formyl-Met-Leu-Phe (fMLP, 0.3 μM)/Cytochalasin B (CB, 5 μg/mL) for 30 min in the presence of cytochrome c, and the superoxide anion generation is measured in terms of superoxide dismutase-inhibitable cytochrome c reduction.

[4] = tested on: superoxide anion formation from rat neutrophils stimulated with PMA; test: Superoxide anion formation in rat neutrophils stimulated by PMA; type: cell-based; settings: for % of inhibition of superoxide anion formation, PMA (in parentheses): at the highest concentration, rat neutrophils; for IC50: rat neutrophils stimulated with PMA
plasmid pBR322DNA = test: Inhibition of oxidative DNA damage by O2− from xanthine/xanthine oxidase (agarose gel electrophoresis); settings: 500 μM compound, xanthine (2 mM)/xanthine oxidase (0.7 U/mL), 20 min, 37° C.
Description: A mixture of the plasmid pBR322DNA ([…]) and xanthine (2 mM)/xanthine oxidase (0.7 U/mL) in 10 mM phosphate buffer (pH 7.4) is incubated for 20 min with 500 μlM of superoxide dismutase, quercetin, or compounds 2, 6, 7, 13, 14, and 20 in a total volume of 20 μL at 37° C., respectively. After incubating for 20 min, a 15 μL aliquot of mixture is loaded into 1.0% agarose gel containing ethidium bromide (0.05 μg/mL) in Tris-acetate-ethylenediaminetetraacetic acid (EDTA) buffer. The electrophoresis is carried out for 30 min at 100 V. Then the gels are illuminated with UV light and photographed.
ROS have been known to damage many biological macromolecules, for instance, with DNA being a significant target. The ability of 18β-GA derivatives to inhibit the DNA damage caused by O2^− (generated by xanthine (XA)/XO) is studied in vitro by agarose gel electrophoresis. […] For determined the antioxidant activities of these compounds, the radical scavenging activities and XO inhibitory activities of these compounds are analyzed.

xanthine oxidase (XO) [5] = test: Xanthine oxidase activity assay; type: biochemical; settings: xanthine as substrate, 25° C., 295 nm
xanthine oxidase (XO), sequence (P47989 whole entry, species assumed): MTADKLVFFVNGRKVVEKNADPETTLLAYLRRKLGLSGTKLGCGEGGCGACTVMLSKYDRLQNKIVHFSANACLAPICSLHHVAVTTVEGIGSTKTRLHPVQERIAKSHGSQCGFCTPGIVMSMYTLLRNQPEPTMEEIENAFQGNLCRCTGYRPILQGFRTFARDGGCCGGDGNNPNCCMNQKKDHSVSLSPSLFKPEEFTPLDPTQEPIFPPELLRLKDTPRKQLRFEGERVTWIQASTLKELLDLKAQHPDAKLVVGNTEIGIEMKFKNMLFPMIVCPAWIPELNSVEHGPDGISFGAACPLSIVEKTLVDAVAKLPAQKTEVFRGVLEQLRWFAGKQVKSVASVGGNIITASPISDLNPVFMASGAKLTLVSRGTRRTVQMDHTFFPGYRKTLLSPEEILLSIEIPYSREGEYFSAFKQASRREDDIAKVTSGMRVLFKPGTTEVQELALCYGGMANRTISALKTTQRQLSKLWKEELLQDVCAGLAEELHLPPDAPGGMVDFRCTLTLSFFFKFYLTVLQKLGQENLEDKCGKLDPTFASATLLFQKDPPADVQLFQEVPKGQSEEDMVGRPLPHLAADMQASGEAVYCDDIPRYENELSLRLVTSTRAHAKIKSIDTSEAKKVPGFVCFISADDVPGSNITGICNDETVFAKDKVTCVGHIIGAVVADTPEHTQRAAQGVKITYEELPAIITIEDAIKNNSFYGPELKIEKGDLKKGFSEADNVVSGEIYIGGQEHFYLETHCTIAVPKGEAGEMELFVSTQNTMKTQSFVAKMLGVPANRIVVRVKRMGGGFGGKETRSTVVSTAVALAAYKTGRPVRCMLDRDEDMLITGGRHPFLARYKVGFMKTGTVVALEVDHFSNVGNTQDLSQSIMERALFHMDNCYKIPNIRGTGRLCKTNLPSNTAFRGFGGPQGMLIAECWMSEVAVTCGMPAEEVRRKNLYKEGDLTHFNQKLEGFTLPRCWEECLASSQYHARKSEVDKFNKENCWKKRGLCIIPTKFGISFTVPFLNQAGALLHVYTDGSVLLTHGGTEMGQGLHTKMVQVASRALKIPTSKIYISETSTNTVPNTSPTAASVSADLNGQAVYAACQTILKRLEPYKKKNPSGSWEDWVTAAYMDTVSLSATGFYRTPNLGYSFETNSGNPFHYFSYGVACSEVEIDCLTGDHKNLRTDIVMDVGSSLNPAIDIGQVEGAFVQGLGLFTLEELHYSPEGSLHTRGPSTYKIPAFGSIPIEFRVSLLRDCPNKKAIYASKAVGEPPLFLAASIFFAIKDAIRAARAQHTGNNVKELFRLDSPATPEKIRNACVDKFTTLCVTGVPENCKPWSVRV
Description: (§2) The xanthine oxidase activity with xanthine as the substrate is measured at 25° C., according to the protocol of Kong and associates (Cell Mol. […] After preincubation at 25° C. for 15 min, the reaction is initiated by addition of 60 μL of substrate solution (150 μM xanthine in the same buffer). The reaction is monitored at 295 nm. The xanthine oxidase activity is expressed as micromoles of uric acid per minute.

xanthine oxidase (XO) [6] = target: xanthine oxidase (XO) (Homo sapiens, UniProt P47989); test: Xanthine oxidase activity assay; type: biochemical; settings: xanthine as substrate, 25° C.
xanthine oxidase (XO) (Homo sapiens, UniProt P47989), sequence (P47989 whole entry, species assumed): as above
Description: as §2

iNOS protein expression = iNOS protein expression in LPS-stimulated RAW 264.7 cells (Western blot); type: cell-based, Murine; settings: RAW 264.7, LPS 50 ng/mL
Description: as §1

[7] = read-out: IC50 (C) TNF-a formation in RAW 264.7, RAW 264.7 cells stimulated with LPS
[8] = Mus musculus, RAW264.7, read-out: IC50 (C) TNF-a formation in RAW 264.7

Compound | IC50 [1, 7] [µM] | IC50 [2] [µM] | % of inhibition of superoxide anion formation, fMLP/CB (in parentheses) [3] [%] | IC50 [3] [µM] | % of inhibition of superoxide anion formation, PMA (in parentheses) [4] [%] | IC50 [4] [µM] | % of inhibition of NO2− accumulation (in parentheses) [2] [%] | % of inhibition of TNF-a formation (in parentheses) [1] [%] | also measured
C=C(C)C1CCC2(C)C(C(=O)C=C3C4CC(C)(C(=O)Nc5ccccc5)CCC4(C)CCC32C)C1(C)CCC(=O)OC (stereo not drawn) [Compound 15] | 15.5 ± 3.2 |  |  |  |  |  |  |  | 
CC(=N)NCc1cccc(CN)c1 [Compound 1400W, N-(3-aminomethyl) benzylacetamidine, reference compound] |  | 1.5 ± 0.2 |  |  |  |  |  |  | 
C=C(C)C1CCC2(C)C(C(=O)C=C3C4CC(C)(C(=O)Nc5ccccc5)CCC4(C)CCC32C)C1(C)CCC(=O)O (stereo not drawn) [Compound 21] | 27.7 ± 7.2 |  |  |  |  |  |  |  | 
C=C(C)C1CCC2(C)C(C(=O)C=C3C4CC(C)(C(=O)OC(C)C)CCC4(C)CCC32C)C1(C)CCC(=O)OC (stereo not drawn) [Compound 12] | > 30 | > 30 | −2.5 ± 11.9 | > 30 | 28.7 ± 15.9 | > 10 | 43.0 ± 4.3 | 47.0 ± 1.3 | inhibitory effect on NO accumulation in the media induced by LPS ([2]; each at 30 μM, RAW 264.7): about 40%
c1ccc2c(c1)[I+]c1ccccc1-2 [DPI, reference compound] |  |  |  | 2.7 ± 2 |  | 1.8 ± 0.4 |  |  | 
COC(=O)C1(C)CCC2(C)CCC3(C)C(=CC(=O)C4C5(C)CCC(=O)OC(C)(C)C5CCC43C)C2C1 (stereo not drawn) [Compound 6, 3,4 lactone 30 methyl ester] |  |  |  |  |  |  |  |  | IC50 ([4]; Neutrophil): 12.9 ± 1.8 µM; protective effect on oxidative DNA damage caused by O2− (plasmid pBR322DNA): significant protective effects; IC50 (xanthine oxidase (XO) [5]): 132 ± 2.7 µM; melting point: 166 to 171 °C
COC(=O)C1(C)CCC2(C)CCC3(C)C(=CC(=O)C4C5(C)CCC(O)C(C)(C)C5CCC43C)C2C1 (stereo not drawn) [Compound 3] | 1.3 ± 0.4 |  |  |  |  |  |  |  | 
C=C(C)C1CCC2(C)C(C(=O)C=C3C4CC(C)(C(=O)OC)CCC4(C)CCC32C)C1(C)CCC(=O)OC (stereo not drawn) [Compound 11] |  | > 30 |  |  |  |  | 44.3 ± 10.5 |  | inhibitory effect on NO accumulation in the media induced by LPS ([2]; each at 30 μM, RAW 264.7): about 40%
CC1(C(=O)Nc2ccccc2)CCC2(C)CCC3(C)C(=CC(=O)C4C5(C)CCC(=O)OC(C)(C)C5CCC43C)C2C1 (stereo not drawn) [Compound 19] | > 30 | > 30 | −1.6 ± 4.4 | > 10 | 26.9 ± 3.0 | > 3 | 20.5 ± 2.7 | 45.2 ± 14.6 | 
C=C(C)C1CCC2(C)C(C(=O)C=C3C4CC(C)(C(=O)OCc5ccccc5)CCC4(C)CCC32C)C1(C)CCC(=O)OC (stereo not drawn) [Compound 13] |  |  |  |  |  |  | 44.5 ± 4.2 |  | IC50 ([4]; Neutrophil): 17 ± 1.5 µM; IC50 ([2]; Mus musculus, RAW264.7): > 30 µM; inhibition at 30 µM ([2]; Mus musculus, RAW264.7, each at 30 μM, RAW 264.7, read-out: inhibitory effect on NO accumulation in the media induced by LPS): ~40%; protective effect on oxidative DNA damage caused by O2− (plasmid pBR322DNA): significant protective effects; IC50 (xanthine oxidase (XO) [5]): 175 ± 0.9 µM; melting point: 32 to 38 °C; IC50 [1, 8]: 13.7 ± 4.3 µM
CC1(C)C(=O)CC[C@]2(C)[C@H]3C(=O)C=C4[C@@H]5C[C@@](C)(C(=O)O)CC[C@]5(C)CC[C@@]4(C)[C@]3(C)CC[C@@H]12 [Compound 2] |  | > 30 |  | 10.3 ± 5.2 |  |  | 45.6 ± 9.1 |  | inhibitory effect on NO accumulation in the media induced by LPS ([2]; each at 30 μM, RAW 264.7): about 40%; protective effect on oxidative DNA damage caused by O2− (plasmid pBR322DNA): significant protective effects; inhibition of XO activity (xanthine oxidase (XO) [6]): weakly inhibit
CC(C)NC(=O)C1(C)CCC2(C)CCC3(C)C(=CC(=O)C4C5(C)CCC(=O)OC(C)(C)C5CCC43C)C2C1 (stereo not drawn) [Compound 18] | > 10 | > 10 | 2.7 ± 12.5 | > 30 | 48.2 ± 8.4 | > 30 | 30.0 ± 11.9 | 9.7 ± 4.7 | 
C=C(C)C1CCC2(C)C(C(=O)C=C3C4CC(C)(C(=O)O)CCC4(C)CCC32C)C1(C)CCC(=O)OC(C)C (stereo not drawn) [Compound 9] | > 30 | > 30 | 48.8 ± 6.6 | > 1 | −7.0 ± 3.0 | > 1 | 39.8 ± 5.4 | 38.4 ± 14.6 | 
O=c1c(-c2ccc(O)cc2)coc2cc(O)cc(O)c12 [Genistein, genistein, reference compound] |  |  |  |  |  |  |  |  | IC50 [1, 8]: 26.5 ± 9.1 µM
C=C(C)C1CCC2(C)C(C(=O)C=C3C4CC(C)(C(=O)O)CCC4(C)CCC32C)C1(C)CCC(=O)OC (stereo not drawn) [Compound 8] | > 10 | > 10 | 81.9 ± 7.4 | > 10 | 7.4 ± 3.1 | > 10 | 29.6 ± 10.0 | 21.2 ± 8.7 | 
C=C(C)C1CCC2(C)C(C(=O)C=C3C4CC(C)(C(=O)NC(C)C)CCC4(C)CCC32C)C1(C)CCC(=O)OC (stereo not drawn) [Compound 14] |  |  |  |  |  |  |  |  | IC50 ([4]; Neutrophil): 15.6 ± 1.7 µM; IC50 ([2]; Mus musculus, RAW264.7): 13.1 ± 5 µM; inhibition of iNOS protein expression (iNOS protein expression): significantly inhibited the iNOS protein expression; protective effect on oxidative DNA damage caused by O2− (plasmid pBR322DNA): significant protective effects; IC50 (xanthine oxidase (XO) [5]): 192 ± 2.7 µM; melting point: 80 to 85 °C
C=C(C)C1CCC2(C)C(C(=O)C=C3C4CC(C)(C(=O)OCc5ccccc5)CCC4(C)CCC32C)C1(C)CCC(=O)O (stereo not drawn) [Compound 17] | 2.3 ± 0.5 |  |  |  |  |  |  |  | 
CC1(C(=O)O)CCC2(C)CCC3(C)C(=CC(=O)C4C5(C)CCC(=O)OC(C)(C)C5CCC43C)C2C1 (stereo not drawn) [Compound 5] | > 3 | > 3 | 27.4 ± 9.2 | > 3 | −8.2 ± 11.8 | > 3 | 3.0 ± 4.2 | −0.7 ± 2.7 | 
C=C(C)C1CCC2(C)C(C(=O)C=C3C4CC(C)(C(=O)O)CCC4(C)CCC32C)C1(C)CCC(=O)O (stereo not drawn) [Compound 7] |  |  |  | 7 ± 2 |  |  |  |  | protective effect on oxidative DNA damage caused by O2− (plasmid pBR322DNA): significant protective effects; inhibition of XO activity (xanthine oxidase (XO) [6]): weakly inhibit
C=C(C)C1CCC2(C)C(C(=O)C=C3C4CC(C)(C(=O)OC)CCC4(C)CCC32C)C1(C)CCC(=O)O (stereo not drawn) [Compound 10] | 26.1 ± 14.7 |  |  |  |  |  |  |  | 
C=C(C)C1CCC2(C)C(C(=O)C=C3C4CC(C)(C(=O)NC(C)C)CCC4(C)CCC32C)C1(C)CCC(=O)O (stereo not drawn) [Compound 20] |  |  |  | 9.8 ± 5.2 |  |  |  |  | protective effect on oxidative DNA damage caused by O2− (plasmid pBR322DNA): significant protective effects; inhibition of XO activity (xanthine oxidase (XO) [6]): weakly inhibit
CC1(C(=O)OCc2ccccc2)CCC2(C)CCC3(C)C(=CC(=O)C4C5(C)CCC(=O)OC(C)(C)C5CCC43C)C2C1 (stereo not drawn) [Compound 16] | > 10 | > 10 | −22.9 ± 7.6 | > 30 | −10.7 ± 10.2 | > 30 | −2.3 ± 4.6 | 25.3 ± 9.9 | 
